The values below come from ChEMBL document CHEMBL4808235, “Identification of 6-hydroxy-5-phenyl sulfonylpyrimidin-4(1H)-one APJ receptor agonists” (Bioorg Med Chem Lett, 2021).

Data set [1] in a line: Metabolic stability in rat liver microsomes assessed as parent compound remaining incubated for 10 mins in presence of NADPH. In kind it is ADME, Microsome. Particulars: read-out: Stabilty.
Data set [2] concerns the target T1, Apelin receptor (Rattus norvegicus, UniProt Q9JHG3).
T1 sequence (Q9JHG3 whole entry): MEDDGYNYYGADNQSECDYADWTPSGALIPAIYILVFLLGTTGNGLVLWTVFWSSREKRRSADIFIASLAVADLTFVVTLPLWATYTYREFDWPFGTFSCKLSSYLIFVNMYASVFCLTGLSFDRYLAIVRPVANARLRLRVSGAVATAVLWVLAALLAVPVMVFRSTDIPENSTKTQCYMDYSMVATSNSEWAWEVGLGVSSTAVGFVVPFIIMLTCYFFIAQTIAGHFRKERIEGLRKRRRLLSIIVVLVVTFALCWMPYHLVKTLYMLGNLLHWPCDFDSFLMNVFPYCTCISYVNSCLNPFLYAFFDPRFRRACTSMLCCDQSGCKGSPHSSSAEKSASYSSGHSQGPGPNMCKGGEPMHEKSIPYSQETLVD
As to the kind of experiment: Agonist activity at rat APJ receptor assessed as effect on cAMP accumulation by cAMP-Glo assay. In kind it is functional.

Data set [3] is described as follows: Permeability of the compound at pH 5.5 by PAMPA. Type of data set: ADME. The settings on record: read-out: permeability.
Data set [4] addresses T2, Apelin receptor (Mus musculus, UniProt Q9WV08).
T2 sequence (Q9WV08 whole entry): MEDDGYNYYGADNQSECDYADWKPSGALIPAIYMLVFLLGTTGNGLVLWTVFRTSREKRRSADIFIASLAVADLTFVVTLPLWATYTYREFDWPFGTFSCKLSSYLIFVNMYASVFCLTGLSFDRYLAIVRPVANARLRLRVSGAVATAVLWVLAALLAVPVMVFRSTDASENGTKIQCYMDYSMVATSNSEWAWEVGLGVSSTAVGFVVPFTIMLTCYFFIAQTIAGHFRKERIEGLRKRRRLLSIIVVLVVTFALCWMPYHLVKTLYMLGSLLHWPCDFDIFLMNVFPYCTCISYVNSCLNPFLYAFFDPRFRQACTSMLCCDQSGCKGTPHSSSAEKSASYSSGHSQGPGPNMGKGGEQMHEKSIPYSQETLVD
As to the kind of experiment: Agonist activity at mouse APJ receptor assessed as effect on cAMP accumulation by cAMP-Glo assay.

Data set [5] addresses T3, Apelin receptor (Homo sapiens, UniProt P35414).
T3 sequence (P35414 whole entry): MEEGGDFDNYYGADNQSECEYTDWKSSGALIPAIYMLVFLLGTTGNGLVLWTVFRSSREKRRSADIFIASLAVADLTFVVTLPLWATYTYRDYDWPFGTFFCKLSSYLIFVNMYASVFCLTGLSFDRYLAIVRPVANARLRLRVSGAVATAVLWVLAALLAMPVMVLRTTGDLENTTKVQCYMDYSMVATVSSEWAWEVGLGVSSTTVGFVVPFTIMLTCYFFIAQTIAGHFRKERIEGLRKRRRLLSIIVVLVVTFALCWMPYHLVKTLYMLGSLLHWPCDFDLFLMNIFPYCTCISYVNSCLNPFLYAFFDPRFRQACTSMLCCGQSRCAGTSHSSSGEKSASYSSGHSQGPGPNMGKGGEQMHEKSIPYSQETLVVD
As to the kind of experiment: Agonist activity at human APJ receptor assessed as effect on cAMP accumulation by cAMP-Glo assay. In kind it is functional.

The nature of data set [6]: Metabolic stability in mouse liver microsomes assessed as parent compound remaining incubated for 10 mins in presence of NADPH. In kind it is ADME, Microsome. The settings on record: read-out: Stabilty.
Data set [7] in a line: Metabolic stability in human liver microsomes assessed as parent compound remaining incubated for 10 mins in presence of NADPH. Type of data set: ADME, Microsome. The settings on record: read-out: Stabilty.
The nature of data set [8]: Permeability of the compound at pH 7.4 by PAMPA. In kind it is ADME. Particulars: read-out: permeability.
Data set [9] can be described thus: Half life in rat at 1 mg/kg, po. Particulars: in vivo. In kind it is ADME, organism-based.
Data set [10] in a line: AUC (0 to 24 hrs) in rat at 1 mg/kg, po. Type of data set: ADME, organism-based. Details: time < 24 hr, route oral, dose 1 mg/kg. Particulars: in vivo.
A short description of data set [11]: Cmax in rat at 1 mg/kg, po. In kind it is ADME, organism-based. Further details: route oral, dose 1 mg/kg. Particulars: in vivo.
Data set [12] is described as follows: Toxicity activity in Sprague-Dawley rat model of acute pressure-volume loop model assessed as change in blood pressure at 10 mg/kg/min administered as iv infusion for 15 mins relative to control. In kind it is organism-based. The settings on record: in vivo, 0.25 h.
A short description of data set [13]: in vivo. The settings on record: rat, po, 1 mg/kg.
The subject of data set [14] is Rattus norvegicus. As to the kind of experiment: Hemodynamic activity in Sprague-Dawley rat model of acute pressure-volume loop model assessed as increase in dP/dT at 10 mg/kg/min administered as iv infusion for 15 mins relative to control. Type of data set: functional. The settings on record: 0.25 h.
A short description of data set [15]: Cmax in cynomolgus monkey at 3 mg/kg, po. In kind it is ADME, organism-based, Macaca fascicularis. Details: route oral, dose 3 mg/kg. Particulars: in vivo.
Data set [16] concerns Rattus norvegicus. As to the kind of experiment: Hemodynamic activity in Sprague-Dawley rat model of acute pressure-volume loop model assessed as increase in cardiac output at 10 mg/kg/min administered as iv infusion for 15 mins relative to control. Type of data set: functional. Particulars: 0.25 h.
Data set [17] in a line: Toxicity activity in Sprague-Dawley rat model of acute pressure-volume loop model assessed as change in heart rate at 10 mg/kg/min administered as iv infusion for 15 mins relative to control. The settings on record: in vivo, 0.25 h. Type of data set: organism-based.
The nature of data set [18]: Plasma concentration in Sprague-Dawley rat model of acute pressure-volume loop model at 10 mg/kg/min administered as iv infusion for 15 mins. In kind it is ADME, organism-based.
A short description of data set [19]: Plasma concentration in Sprague-Dawley rat model of acute pressure-volume loop model assessed as free fraction at 10 mg/kg/min administered as iv infusion for 15 mins. Type of data set: ADME, organism-based. The settings on record: in vivo, 0.25 h.
A short description of data set [20]: Plasma concentration in Sprague-Dawley rat model of acute pressure-volume loop model at 10 mg/kg/min administered as iv infusion for 5 mins. Type of data set: ADME, organism-based.
Data set [21] in a line: Plasma concentration in Sprague-Dawley rat model of acute pressure-volume loop model assessed as free fraction at 10 mg/kg/min administered as iv infusion for 5 mins. In kind it is ADME, organism-based. Particulars: in vivo.
Data set [22] is described as follows: in vivo. Particulars: cynomolgus monkey, po, 3 mg/kg.
Description: AUC (0 to infinity) in cynomolgus monkey at 3 mg/kg, po

For `CCCCc1nc(=O)c(S(=O)(=O)c2ccccc2)c(O)n1-c1c(OC)cccc1OC`, the results for the remaining at 10 min in data set [1], in [6] and in data set [7] were 93%, 79% and 89%, respectively. Moreover, the half-maximal effective concentration (EC50) turned out to be 0.9 nM on Apelin receptor [2], 1 nM at Apelin receptor [4] and 0.5 nM on Apelin receptor [5]. Also, the Papp in data set [3] turned out to be 14.1 ×10⁻⁶ cm/s; in data set [8] it was 0.15 ×10⁻⁶ cm/s.
Regarding `CCCCc1nc(=O)c(S(=O)(=O)c2ccc(-c3ccc(F)nc3)cc2)c(O)n1-c1c(OC)cccc1OC`, the figures for the remaining at 10 min in data set [1], in data set [6] and in [7] were 2%, 69% and 100%, respectively. Besides, the EC50 at Apelin receptor [2] was 0.004 nM; on Apelin receptor [4], 0.02 nM; on Apelin receptor [5], 0.002 nM. Moreover, the Papp in data set [3] worked out at 51.6 ×10⁻⁶ cm/s; in [8], 2.4 ×10⁻⁶ cm/s.
Turning to `CCCCc1nc(=O)c(S(=O)(=O)c2ccc(C)cc2)c(O)n1-c1c(OC)cccc1OC`, the remaining at 10 min in data set [1] was determined as 74%; in data set [6] it was 80%; in data set [7], 94%. Also, the EC50 amounted to 0.3 nM at Apelin receptor [2], 0.3 nM at Apelin receptor [4] and 0.2 nM on Apelin receptor [5]. Moreover, the figures for the Papp in [3] and in data set [8] were 24.3 ×10⁻⁶ cm/s and 0.7 ×10⁻⁶ cm/s, respectively.
Consider `CCCCc1[nH]c(=O)c(S(=O)(=O)c2ccc(-c3ccncc3C)cc2)c(O)c1-c1c(OC)cccc1OC`, for which the remaining at 10 min was 57% in [1], 39% in data set [6] and 80% in data set [7]. For the same compound, the EC50 came to 0.4 nM on Apelin receptor [2], 0.1 nM on Apelin receptor [4] and 0.04 nM on Apelin receptor [5]. Further, the Papp is 35.5 ×10⁻⁶ cm/s in data set [3] and 7.6 ×10⁻⁶ cm/s in data set [8].
Take `CCCCc1nc(=O)c(S(=O)(=O)c2ccc(-c3ccnc(NC(=O)C4CC4)c3)cc2)c(O)n1-c1c(OC)cccc1OC`: the remaining at 10 min turned out to be 72% in data set [1], 72% in [6] and 84% in [7]. Besides, the EC50 on Apelin receptor [2] worked out at 0.04 nM; at Apelin receptor [4] it was 0.04 nM; on Apelin receptor [5], 0.03 nM. For the same compound, the Papp was determined as 18.3 ×10⁻⁶ cm/s in data set [3] and 1.1 ×10⁻⁶ cm/s in data set [8]. In data set [9], this compound showed a half-life of 1.3 h. Moreover, in data set [10], the AUC(0-t) at 24 h was determined as 0.6 µM·h. This compound also returned a Cmax in [11] of 400 nM.
As for `CCCCc1[nH]c(=O)c(S(=O)(=O)c2ccc(-n3ccccc3=O)cc2)c(O)c1-c1c(OC)cccc1OC`, the remaining at 10 min in [1] was determined as 100%; in data set [6], 75%; in [7], 100%. Also, the figures for the EC50 at Apelin receptor [2], on Apelin receptor [4] and on Apelin receptor [5] were 3 nM, 2 nM and 0.5 nM, respectively. Also, the Papp worked out at 17.7 ×10⁻⁶ cm/s in data set [3] and 0.5 ×10⁻⁶ cm/s in [8].
As to `CCCCc1nc(=O)c(S(=O)(=O)c2ccc(-c3cccnc3)cc2)c(O)n1-c1c(OC)cccc1OC`, the remaining at 10 min in [1] came out at 3%; in data set [6] it was 57%; in data set [7], 88%. The EC50 on Apelin receptor [2] amounted to 0.05 nM; on Apelin receptor [4], 0.05 nM; at Apelin receptor [5], 0.04 nM. Moreover, the Papp in [3] was 20.2 ×10⁻⁶ cm/s; in [8], 0.6 ×10⁻⁶ cm/s.
On to `CCCCc1nc(=O)c(S(=O)(=O)c2ccc(C3CC3)cc2)c(O)n1-c1c(OC)cccc1OC`, for which the Activity result in data set [12] was “Non-Toxic”; in the data set with Rattus norvegicus [14], 14%; in the data set on Rattus norvegicus [16], 11%; in data set [17] it was “Non-Toxic”. Besides, the remaining at 10 min is 59% in data set [1], 93% in data set [6] and 95% in data set [7]. For the same compound, the EC50 stood at 0.06 nM at Apelin receptor [2], 0.03 nM on Apelin receptor [4] and 0.02 nM at Apelin receptor [5]. For the same compound, the AUC(0-inf) is 3.9 µM·h in the data set “in vivo [13]” and 4.7 µM·h in “in vivo [22]”. Moreover, the Papp was 61.5 ×10⁻⁶ cm/s in data set [3] and 2.2 ×10⁻⁶ cm/s in data set [8]. Moreover, the Cmax in data set [15] was determined as 1500 nM; in [11], 6200 nM. The half-life in data set [9] is 5.6 h. The compound further registered a concentration at 0.25 h in data set [18] of 5800 nM. The “Cp(f)” value in data set [19] worked out at 12 nM; in data set [21], 5.2 nM. In data set [20], this compound displayed a concentration at 5 min of 2600 nM.
In the case of `CCOCc1nc(O)c(-c2nnc(Cc3ccc(Cl)cn3)o2)c(O)c1-c1c(OC)cccc1OC` [BMS-986224], the AUC(0-inf) in the data set “in vivo [13]” stood at 15.5 µM·h. Further, the EC50 on Apelin receptor [4] is 0.027 nM. In data set [9], this compound had a half-life of 2.3 h. In [10], this compound displayed an AUC(0-t) at 24 h of 16 µM·h. The Cmax in [11] was found to be 5300 nM.
